From US8637480B2, “Mitochondrial function-improving agent” (National University Corporation Kumamoto University, priority 2009, dated 2014)
d = 2'-deoxy (DNA); r = 2'-OH (RNA)

What was measured:
[1] = system: LSD1 target genes in 3T3-L1 cells; assay: Comprehensive analysis of LSD1 target genes in 3T3-L1 cells using microarray; type: cell-based, mouse; conditions: for expression of the LSD1 target candidates (microarray): tranylcypromine 10^−4 M
Protocol: (1) Comprehensive Analysis of LSD1 Target Genes in 3T3-L1 Cells, Using Microarray (FIG. 1)
An adipogenesis induction medium was prepared by dissolving […] 3-isobutyl-1-methylxanthine, 1 μM dexamethasone and 5 μg/ml insulin in a Dulbecco's modified Eagle's medium containing 10% fetal bovine serum. Total RNA was extracted using RNeasy mini column (Qiagen). Using GeneChip Mouse Genome Array 430—2 in combination with GeneChip Hybridization, Wash and Stain Kit (Affymetrix), genome-wide expression analysis was carried out
Thereafter, RNA analysis was carried out as described above. Using GeneChip Mouse Genome Array 430—2 in combination with GeneChip Hybridization, Wash and Stain Kit (Affymetrix), genome-wide expression analysis was carried out.

[2] = system: LSD1 target genes such as PGC-1α in 3T3-L1 cells; assay: Expression of LSD1 target genes under inhibition of enzymes associated with FAD synthesis (quantitative RT-PCR); type: cell-based, mouse; conditions: siRNA against FAD synthesis enzymes
Protocol: (8) Induction of Expression of LSD1 Target Genes by Inhibition of Enzyme Associated with FAD Synthesis (FIG. 9)
(§1) Using Trizol reagent (Invitrogen), total RNA was extracted from 3T3-L1 cells in which siRNA against riboflavin kinase (RFK) or FAD synthase (FADS) had been introduced. […] Using FAD assay kit (BioVision), the amount of FAD in the cells was measured under inhibition of FAD synthesis.

[3] = system: FAD in 3T3-L1 cells; assay: Amount of FAD in cells (FAD assay kit); type: cell-based, mouse; conditions: FAD synthesis inhibited
Protocol: as §1

[4] = system: dimethylated H3K4 at LSD1 target gene promoters in 3T3-L1 cells; assay: Chromatin immunoprecipitation (ChIP) assay for methylation of H3K4; type: cell-based, mouse
Protocol: (3) Chromatin Immunoprecipitation (ChIP) Assay for Detecting Methylation of 4th Lysine Residue of Histone H3 (H3K4) and Binding of LSD1 (FIG. 3 and FIG. 4)
A DNA-protein complex of 3T3-L1 cells was crosslinked using 1% formalin, and chromatin was then fragmented using a water tank ultrasonic processor. The chromatin fragments were incubated at 4° C. overnight in the presence of an antibody directed against methyl-H3K4, LSD1 or BHC80. Thereafter, the reaction product was recovered using agarose beads to which protein A and protein G had been bound. DNA was isolated, and real-time PCR was then carried out using the following primer set

[5] = system: PGC-1α gene expression in 3T3-L1 cells; assay: Expression analysis of PGC-1α gene and the like by quantitative real-time PCR; type: cell-based, mouse; conditions: standardized against 36B4, versus control siRNA or vehicle
Protocol: (2) Expression Analysis of PGC-1α gene and the Like by Quantitative Real-time PCR (FIG. 2)
Total RNA was extracted using Trizol reagent (Invitrogen). Quantitative RT-PCR was carried out using Fast SYBR Green System (Applied Biosciences). […] The value is given as a multiple of induction to a sample into which control siRNA has been introduced or a sample treated with a vehicle. Statistical significant difference is indicated by *p<0.05, **p<0.01, with respect to control (the same applies below). The following primers were used.

[6] = system: mPGC-1α promoter (pGL3-PGC-1α reporter) in 3T3-L1 cells; assay: PGC-1α promoter activity by luciferase assay; type: cell-based, mouse; conditions: adipose differentiation induced for 24 hours
Protocol: (4) Analysis of PGC-1α Promoter Activity by Luciferase Assay (FIG. 5)
In order to construct pGL3-PGC-1α (PGC-1α/Luc) that is a luciferase reporter vector containing an mPGC-1α promoter, a 3707 bps promoter fragment from −3627 to +80 was amplified by PCR, using primers containing a MluI site and a XhoI site at the 5′-terminus and 3′-terminus thereof, respectively. Luciferase assay was carried out using Dual-Luciferase Reporter Assay System (Promega) in accordance with protocols included therewith. 3T3-L1 cells were co-transfected with the pGL3-PGC-1α reporter vector and a pRL-TK reference vector, and adipose differentiation was induced in the presence or absence of TC for 24 hours. Thereafter, luciferase activity was measured. When siRNA was applied, it was introduced 24 hours before transfection with the reporter.

[7] = system: LSD1 target genes such as PGC-1α in 3T3-L1 cells; conditions: 24 hours, 10^−4 M (clorgyline 10^−5 M)
Protocol: (12) Effects of Various Types of MAO Inhibitors on LSD1 Target Gene Group (FIG. 13)
Thereafter, RNA analysis was carried out. Expression analysis was carried out as described above. The expression level of PGC-1α or the like was standardized against the internal control gene 36B4. The value was given as a multiple of induction to a control treated with a vehicle.

[8] = system: LSD1 target genes including PGC-1α; conditions: high fat diet 6 weeks, 10 mg/kg intraperitoneally every other day, versus PBS
[9] = system: 3T3-L1 cells; assay: Mitochondrial biosynthesis in 3T3-L1 cells by JC-1 staining and flow cytometry; type: cell-based, mouse; conditions: tranylcypromine 10^−3 or 10^−4 M, flow cytometry
Protocol: For the measurement of mitochondrial biosynthesis, cells were stained with a fluorescent dye JC-1 (Molecular Probes), and they were then analyzed by flow cytometry. JC-1 binds to the mitochondrial inner membrane to emit green fluorescence, and forms a red fluorescent aggregate, depending on membrane potential. Accordingly, the amount of mitochondria can be evaluated by detecting the green fluorescence, whereas the amount of mitochondrial electron transport can be evaluated by detecting the red fluorescence. […] Subsequently, the cells were allowed to come into contact with 5 μg/ml JC-1 in a medium at 37° C. for 15 minutes, and they were then suspended in PBS, followed by FACS analysis. The green fluorescence and the red fluorescence were detected by FL1 and FL2 settings, respectively. The value indicates a mean fluorescence intensity in each setting.

[10] = 3T3-L1 cells, 24 hours differentiation induction

Row | Molecule | expression of LSD1 target genes such as PGC-1α [2] | amount of FAD in a cell [3] | amount of dimethylated H3K4 in other LSD1 target gene promoters such as PDK4 [4] | expression of the LSD1 target candidates (microarray) [1, 10] | expression of genes such as PGC-1α (quantitative RT-PCR) [5] | expression of luciferase reporter gene downstream of the PGC-1α promoter [6] | amount of mitochondria (JC-1 green fluorescence, FL1) [9] | mitochondrial membrane potential (JC-1 red fluorescence, FL2) [9] | other results
1 | RFK siRNA: siRNA against riboflavin kinase: sense SEQ ID NO: 33, antisense SEQ ID NO: 34 (sense UCUUCCAGCUGAUGUGUCUTT; antisense AGACACAUCAGCUGGAAGATT; sugars from the 5' end r19 d2, backbone not given here) | activated | decreased |  |  |  |  |  |  | expression of a majority of LSD1 target genes (microarray) ([1]; 3T3-L1 cells, RFK knock-down, 24 hours differentiation induction): induced
2 | N[C@@H]1C[C@H]1c1ccccc1 (racemic) [tranylcypromine, reference compound] |  |  | The same results were obtained | induced | Induction of the expression | activated (disinhibited) | stimulatory effect | stimulatory effect | amount of dimethylated H3K4 in PGC-1α promoter ([4]; under treatment): increase in the amount of dimethylated H3K4 was detected; activation of LSD1 target genes such as PGC-1α compared with other MAO inhibitors [7]: significant activation; expression of LSD1 target genes including PGC-1α in fat around the testis [8]: increased; expression of LSD1 target genes including PGC-1α in the liver [8]: The same results as described above were obtained
3 | BHC80 siRNA: siRNA against LSD1 coupling factor BHC80: sense SEQ ID NO: 31, antisense SEQ ID NO: 32 (sense GUUCCAGAUACAGCCAUUGTT; antisense CAAUGGCUGUAUCUGGAACTT; sugars from the 5' end r19 d2, backbone not given here) |  |  |  | induced | Induction of the expression |  |  |  | 
4 | LSD1 siRNA: siRNA against LSD1: sense SEQ ID NO: 29, antisense SEQ ID NO: 30 (sense CACAAGGAAAGCUAGAAGATT; antisense UCUUCUAGCUUUCCUUGUGTT; sugars from the 5' end r19 d2, backbone not given here) |  |  | The same results were obtained |  | Induction of the expression | activated (disinhibited) | the same results were obtained | the same results were obtained | amount of dimethylated H3K4 in PGC-1α gene promoter versus control [4]: approximately 2 fold; number of target candidates induced to a higher level (2-fold or more) ([1]; differentiating 3T3-L1 cells, 24 hours in differentiation induction medium, microarray): 601
5 | FADS siRNA: siRNA against FAD synthase: sense SEQ ID NO: 35, antisense SEQ ID NO: 36 (sense GAGCCCUUGGAGGAAUGUCTT; antisense GACAUUCCUCCAAGGGCUCTT; sugars from the 5' end r19 d2, backbone not given here) | activated | decreased |  |  |  |  |  |  | 
